Converted amounts (≈) assume the structure as drawn. Where two headings read alike, the source gives them in different places.
How the values were obtained:
[1] = Spectrophotometric determination of dissociation constants (pKa); assay type: physicochemical; settings: UV-vis at varying pH, 1:1 water:methanol buffers
Procedure: Dissociation constants (pKa) for select analogues were determined by implementing UV-vis spectroscopy at varying pH values. Buffers were prepared using potassium phosphate monobasic (KH2PO4) and sodium phosphate dibasic (Na2HPO4) in a 1:1 solution of water:methanol to achieve a pH range of 3.78 to 10.94. Compounds were added from 10 mM stock solutions in dimethyl sulfoxide (12.5 μL) to 987.5 μL of each buffer to yield a final compound concentration of 125 μM. Full spectral scans were performed for each evaluated analogue at pH 3.78 and pH 10.94 from 300 to 800 nm to determine λmax values for the protonated phenol (HA; e.g., HP 2 below) and the deprotonated phenolate species (A^−; e.g., conjugate base of HP 2 below). The change in absorption at each determined λmax in relation to pH was then monitored in each buffer and then plotted as absorbance versus pH for each species. The pKa was first estimated by determining the pH of the point of intersection of the two linear curves as shown. The visual estimation was confirmed by plotting pH versus log [A^−/HA]. The resulting plot yielded a linear regression line with a Y-intercept corresponding to a calculated pKa value.

[2] = test system: Enterococcus faecium (ATCC 700221), VRE; assay: MIC assay (broth microdilution, CLSI); assay type: cell-based
[3] = test system: MRSA BAA-44 planktonic cells and biofilms; assay: Calgary Biofilm Device (CBD) assay, MBC/MBEC; settings: Staphylococcus aureus, read-out: MRSA BAA-44 MBC
[4] = test system: E. coli UAEC-1; assay: MIC assay (broth microdilution, CLSI); assay type: cell-based; settings: Escherichia coli, UAEC1; read-out: E. coli UAEC-1 MIC
[5] = test system: VRE (E. faecium ATCC 700221) planktonic cells and biofilms; assay: Calgary Biofilm Device (CBD) assay, MBC/MBEC; assay type: cell-based, Enterococcus faecium; settings: c lowest concentration tested; for MBC: Enterococcus
[6] = test system: E. faecium 700221 (VRE); assay: MIC assay with Tiron or metal(II) cation co-treatment; assay type: cell-based, Enterococcus faecium; settings: Enterococcus faecium, VRE
[7] = in vitro; assay type: cell-based; settings: human
[8] = test system: HeLa cells; assay: in vitro; assay type: cell-based; settings: human, 24 h
[9] = test system: K. pneumoniae 13883; assay: MIC assay (broth microdilution, CLSI); assay type: cell-based, Klebsiella pneumoniae; settings: Klebsiella pneumoniae, 13883; read-out: K. pneumoniae 13883 MIC
[10] = test system: MRSE (S. epidermidis ATCC 35984) planktonic cells and biofilms; assay: Calgary Biofilm Device (CBD) assay, MBC/MBEC; assay type: cell-based, Staphylococcus epidermidis; settings: for MBC: Staphylococcus epidermidis
[11] = test system: MRSA BAA-1707 planktonic cells and biofilms; assay: Calgary Biofilm Device (CBD) assay, MBC/MBEC; settings: Staphylococcus aureus, read-out: MRSA BAA-1707 MBC
[12] = test system: A. baumannii 19606; assay: MIC assay (broth microdilution, CLSI); assay type: cell-based, Acinetobacter baumannii; settings: Acinetobacter baumannii, 19606; read-out: A. baumannii 19606 MIC
[13] = test system: P. aeruginosa (PAO1); assay: MIC assay (broth microdilution, CLSI); assay type: cell-based; settings: Pseudomonas aeruginosa, PAO1; read-out: PAO1 MIC
[14] = test system: MRSA BAA-44; assay: MIC assay (broth microdilution, CLSI); settings: Staphylococcus aureus, read-out: MIC, MRSA BAA-44
[15] = test system: MRSA-2 planktonic cells and biofilms; assay: Calgary Biofilm Device (CBD) assay, MBC/MBEC; assay type: cell-based, Staphylococcus aureus; settings: Staphylococcus aureus, MRSA
[16] = test system: methicillin-resistant S. aureus (MRSA) strains; assay: MIC assay, values summarised over MRSA strains; assay type: cell-based, Staphylococcus aureus
[17] = test system: human red blood cells; assay: Hemolysis assay with red blood cells; settings: human, 1 h, 200 μM, pH 7.2
Summary of the method: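 Washed human red blood cells exposed to compounds added from DMSO stocks, 1 h at 37° C.; supernatant OD read at 405 nm after centrifugation. % hemolysis calculated relative to DMSO (0%) and Triton X (100%) controls, from three independent experiments.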

[18] = test system: MRSA-1 (methicillin-resistant Staphylococcus aureus clinical isolate); assay: MIC assay (broth microdilution, CLSI); assay type: cell-based; settings: read-out: MIC, MRSA-1
[19] = test system: M. tuberculosis H37Ra (ATCC 25177); assay: Mycobacterium tuberculosis MIC assay; assay type: cell-based
Procedure: The culture was then diluted with fresh medium until an OD600 of 0.01 was reached. […] The final DMSO concentration was maintained at 0.5%. […] Three rows were reserved for each compound. […] OD600 absorbance was recorded using SPECTRAMAX M5 (Molecular Devices). Data obtained from three independent experiments were analyzed using Excel.
The culture was then diluted with fresh medium until an OD600 of 0.01 was reached. […] The final DMSO concentration was maintained at 0.5%. […] Three rows were reserved for each compound. […] OD600 absorbance was recorded using SPECTRAMAX M5 (Molecular Devices). Data obtained from three independent experiments were analyzed using EXCEL.

[20] = test system: MRSA BAA-1707; assay: MIC assay (broth microdilution, CLSI); settings: Staphylococcus aureus, read-out: MIC, MRSA BAA-1707
[21] = test system: MRSA-2 (methicillin-resistant Staphylococcus aureus clinical isolate); assay: MIC assay (broth microdilution, CLSI); assay type: cell-based; settings: Staphylococcus aureus, MRSA
[22] = test system: Staphylococcus epidermidis (ATCC 12228); assay: MIC assay (broth microdilution, CLSI); assay type: cell-based; settings: Staphylococcus epidermidis, ATCC12228
[23] = test system: Staphylococcus epidermidis (ATCC 35984), MRSE; assay: MIC assay (broth microdilution, CLSI); assay type: cell-based; settings: Staphylococcus epidermidis, Table 7; read-out: MIC, MRSE 35984
[24] = test system: S. aureus clinical isolate SA 138; assay: MIC assay (broth microdilution, CLSI); settings: Staphylococcus aureus, read-out: MIC, SA 138
[25] = test system: S. aureus clinical isolate SA 129; assay: MIC assay (broth microdilution, CLSI); settings: Staphylococcus aureus, read-out: MIC, SA 129
[26] = test system: MRSA-2; assay: MIC assay with Tiron or metal(II) cation co-treatment; assay type: cell-based, Staphylococcus aureus; settings: Staphylococcus aureus; MRSA-2, 200 μM iron(II); read-out: MIC with Fe^2+
[27] = test system: MRSA-2 persister cells (stationary cultures); settings: 100 μM; for MRSA-2 stationary killing: reduction of viable cells over 24 h
[28] = Enterococcus faecium, Table 2A, read-out: MIC, Enterococcus faecium (ATCC 700221)
[29] = Table 7, b lowest concentration tested, read-out: MIC, VRE 700221
[30] = Table 8, read-out: VRE 700221 MBC
[31] = Table 8, read-out: MRSE 35984 MBC
[32] = Table 8, a/b 2-/4-fold range in independent experiments, read-out: MRSA-2 MBC
[33] = Enterococcus faecium, Table 2B, b lowest concentration tested, read-out: MIC, Enterococcus faecium (ATCC 700221)
[34] = Table 7, b lowest concentration tested, read-out: MIC, S. epidermidis 12228

SMILES	MIC [2, 28] [µM]	MIC [2, 29] [µM]	MBC [3] [µM]	MBC [5, 30] [µM]	IC50 at 24 h [7] [µM]	IC50 [8] [µM]	MBC [10, 31] [µM]	MBC [11] [µM]	melting point [°C]	MIC [14] [µM]	MBC [15, 32] [µM]	growth inhibition activity against at least one MRSA strain [16]	% Hemolysis (200 μM) [17] [%]	% Hemolysis at 200 μM [17] [%]	MIC [2, 33] [µM]	MIC [20] [µM]	MIC [22, 34] [µM]	also measured
O=[N+]([O-])c1ccc(O)cc1 [4-nitrophenol, reference compound]	–	–	–	–	–	–	–	–	–	–	–	–	–	–	–	–	–	pKa [1]: 7.62
Oc1c(Br)cc(I)c2nc3ccccc3nc12 [Compound 8, 2-Bromo-4-iodo-1-hydroxyphenazine]	6.25 (≈ 2.51 µg/mL)	6.25 (≈ 2.51 µg/mL)	46.9 (≈ 18.8 µg/mL)	3 (≈ 1.2 µg/mL)	> 100	> 100	11.7 (≈ 4.69 µg/mL)	23.5 (≈ 9.42 µg/mL)	186 to 188	1.17 (≈ 0.469 µg/mL)	31.3 (≈ 12.6 µg/mL)	sub-micromolar	2.9	2.9	–	–	–	MIC [4]: > 100 µM; MIC ([6]; E. faecium 700221, 200 μM CuSO4, read-out: MIC with Cu^2+): 3.13 µM; MIC ([6]; E. faecium 700221, 1 mM Tiron, read-out: MIC with Tiron): 3.13 µM; MIC ([6]; E. faecium 700221, no additive, read-out: MIC): 3.13 µM; MIC [9]: > 100 µM; MIC [12]: 50 µM (≈ 20.1 µg/mL); MIC [13]: > 100 µM; MBC ([15]; Table 4, read-out: MBC, MRSA-2): 31.3 µM (≈ 12.6 µg/mL)
Oc1c(Br)cc(Br)c2nc3cc(Br)c(Br)cc3nc12 [Compound 17, 2,4,7,8-tetrabromo-1-hydroxyphenazine]	0.39 (≈ 0.2 µg/mL)	0.39 (≈ 0.2 µg/mL)	50 (≈ 25.6 µg/mL)	0.39 (≈ 0.2 µg/mL)	> 100	> 100	–	6.25 (≈ 3.2 µg/mL)	–	25 (≈ 12.8 µg/mL)	–	–	≤1	–	0.39 (≈ 0.2 µg/mL)	12.5 (≈ 6.4 µg/mL)	0.08 (≈ 0.0409 µg/mL)	MIC ([18]; Staphylococcus aureus, MRSA): 12.5 µM (≈ 6.4 µg/mL); MIC ([18]; Table 2B, b lowest concentration tested): 12.5 µM (≈ 6.4 µg/mL); MBC ([5]; Table 5, read-out: VRE MBC): 0.39 µM (≈ 0.2 µg/mL); VRE MBEC ([5]; Table 5): 0.39/0.39 μM; MBC ([10]; read-out: MBC, Staphylococcus epidermidis (ATCC 35984)): 1.56 µM (≈ 0.798 µg/mL); MBC ([10]; read-out: MRSE 35984 MBC): 1.56 µM (≈ 0.798 µg/mL); MBC ([10]; read-out: MRSE MBC): 1.56 µM (≈ 0.798 µg/mL); MBEC, Staphylococcus epidermidis (ATCC 35984) ([10]; Table 4): 6.25 µM; MRSE MBEC ([10]; Table 5): 6.25 µM; MIC ([19]; Mycobacterium tuberculosis, 168 h, M. tuberculosis H37Ra, 7 days, read-out: Mtb MIC): > 50 µM; MIC ([19]; Mycobacterium tuberculosis, Table 7, read-out: MIC, M. tuberculosis H37Ra): > 50 µM; MIC ([19]; Table 7, read-out: MIC, M. tuberculosis H37Ra): >50 µM; MIC ([21]; read-out: MIC, MRSA-2): 6.25 µM (≈ 3.2 µg/mL); MIC ([21]; read-out: MIC, MRSA-2, Table 2B, a midpoint of 2-fold range, * partial growth inhibition at highest concentration): 6.25 µM (≈ 3.2 µg/mL); MIC ([21]; read-out: MIC, MRSA-2, Table 7, a midpoint of 2-fold range, b lowest concentration tested): 6.25 µM (≈ 3.2 µg/mL); MIC ([22]; Table 2A, read-out: MIC, Staphylococcus epidermidis (ATCC 12228)): 0.05 to 0.1 µM (≈ 0.0256 to 0.0512 µg/mL)
Oc1c(Br)cc(Br)c2nc3ccc(Br)cc3nc12 [Compound 18, 2,4,8-Tribromo-1-hydroxyphenazine]	–	–	–	–	–	–	–	12.5 (≈ 5.41 µg/mL)	239 to 241	–	50 (≈ 21.6 µg/mL)	sub-micromolar	–	2.1	–	0.2 (≈ 0.0866 µg/mL)	3.13 (≈ 1.35 µg/mL)	MIC [23]: 3.13 µM (≈ 1.35 µg/mL); MIC ([16]; Staphylococcus aureus, MRSA, range over the MRSA strains/isolates tested, read-out: MIC against MRSA strains): 0.15 to 0.78 µM (≈ 0.0649 to 0.338 µg/mL)
CCCCc1cc(Br)c(O)c2nc3ccccc3nc12 [Compound 22, 2-Bromo-4-butyl-1-hydroxyphenazine]	–	0.78 (≈ 0.258 µg/mL)	–	2 (≈ 0.662 µg/mL)	–	–	11.7 (≈ 3.88 µg/mL)	46.9 (≈ 15.5 µg/mL)	135 to 137	–	46.9 (≈ 15.5 µg/mL)	–	–	–	–	–	–	MIC [24]: 3.13 µM (≈ 1.04 µg/mL); MIC [25]: 1.17 µM (≈ 0.388 µg/mL)
CC(=O)NC[C@H]1CN(c2ccc(N3CCOCC3)c(F)c2)C(=O)O1 [Linezolid, linezolid, reference compound]	–	3.13 (≈ 1.06 µg/mL)	–	469 (≈ 158 µg/mL)	–	–	–	31.3 (≈ 10.6 µg/mL)	–	–	–	–	≤1	–	3.13 (≈ 1.06 µg/mL)	–	–	MIC [26]: 6.25 µM; log reduction of MRSA-2 persisters after 3 hours ([27]; 3 hours): 2 log; MRSA-2 stationary killing [27]: ~1 log; MRSA-2 stationary killing ([27]; listed as linezolid): 1 log; MIC ([21]; Table 7, a midpoint of 2-fold range, b lowest concentration tested, read-out: MIC, MRSA-2): 3.13 µM (≈ 1.06 µg/mL)
